According to ChEMBL document CHEMBL5634185, “Drymariamides A-J, Antiadipogenic Cyclopeptides Incorporating Noncanonical Amino Acids from Drymaria cordata” (J Nat Prod, 2024):
Activity calls are given as the source filed them. The rule behind the calls is not given here. Starred links: 1 amine or outer side, 2 acyl side, 3 side chain; linkers in the order of their positions; H or OH if unused. Non-standard residues stand in square brackets, D forms with d. Residues, ends and D or L forms follow the SMILES beside them. X1 = C[C@@]12Nc3ccccc3[C@]1(O)C[C@@H](C(=O)[*:2])N2[*:1]; Kyn = Nc1ccccc1C(=O)C[C@H](N)C(=O)O

How the values were obtained:
3T3-L1 [1] = assay: Anti-adipogenic activity against mouse 3T3-L1 cells assessed as decrease in triglyceride level at 1 to 100 uM by Oil Red O staining based analysis; type: functional, cell-based; settings: dose 1-100 µM
3T3-L1 [2] = assay: Cytotoxicity against mouse 3T3-L1 cells assessed as cell viability incubated for 48 hrs by MTT assay; type: toxicity, cell-based; settings: 3t3-l1, 48 h
3T3-L1 [3] = assay: Anti-adipogenic activity against mouse 3T3-L1 cells assessed as decrease in triglyceride level by Oil Red O staining based analysis; type: functional, cell-based

Row | SMILES | Activity (3T3-L1 [1]) | Activity (3T3-L1 [2]) | EC50 (3T3-L1 [3]) [nM]
1 | O=C1CNC(=O)[C@@H]2CCCN2C(=O)[C@H](Cc2c[nH]c3ccccc23)NC(=O)[C@H](Cc2ccc(O)cc2)NC(=O)[C@@H]2CCCN2C(=O)[C@H](Cc2ccccc2)N1 (cyclo(FPYWPG)) | Active | Non-Toxic | 
2 | CC(C)C[C@@H]1NC(=O)[C@@H]2CCCN2C(=O)[C@H](Cc2ccccc2)NC(=O)[C@@H]2CCCN2C(=O)[C@H](C)NC(=O)[C@@H]2CCCN2C(=O)[C@H](Cc2ccc(O)cc2)NC1=O (cyclo(APFPLYP)) | Active | Non-Toxic | 
3 | Nc1ccccc1C(=O)C[C@@H]1NC(=O)[C@H](Cc2ccc(O)cc2)NC(=O)[C@@H]2CCCN2C(=O)[C@H](Cc2ccccc2)NC(=O)CNC(=O)[C@@H]2CCCN2C1=O (cyclo(FPY[Kyn]PG)) | Active | Non-Toxic | 
4 | O=C1CNC(=O)[C@@H]2CCCN2C(=O)[C@H](Cc2c[nH]c3ccccc23)NC(=O)[C@H](Cc2ccc(O)cc2)NC(=O)[C@@H]2CCCN2C(=O)CN1 (cyclo(GGPYWP)) | Active | Non-Toxic | 
5 | CC(C)C[C@@H]1NC(=O)[C@@H]2CCCN2C(=O)[C@H](Cc2ccccc2)NC(=O)[C@@H]2CCCN2C(=O)[C@H](C)NC(=O)[C@H](Cc2ccc(O)cc2)NC(=O)[C@@H]2CCCN2C(=O)[C@H](Cc2ccc(O)cc2)NC1=O (cyclo(APFPLYPY)) | Active | Non-Toxic | 
6 | CC[C@H](C)[C@@H]1NC(=O)[C@H](Cc2c[nH]c3ccccc23)NC(=O)[C@@H]2CCCN2C(=O)CNC(=O)[C@H](Cc2ccc(O)cc2)NC(=O)CNC(=O)[C@H](C(C)C)NC(=O)[C@H](C)NC1=O (cyclo(AVGYGPWI)) | Active | Non-Toxic | 
7 | C[C@@]12Nc3ccccc3[C@]1(O)C[C@H]1C(=O)N3CCC[C@H]3C(=O)NCC(=O)N[C@@H](Cc3ccccc3)C(=O)N3CCC[C@H]3C(=O)N[C@@H](Cc3ccc(O)cc3)C(=O)N12 (cyclo(FPY[X1]PG)) | Active | Non-Toxic | 
8 | CC(C)C[C@@H]1NC(=O)[C@@H]2CCCN2C(=O)[C@H](CO)NC(=O)CNC(=O)[C@@H]2C[C@@]3(O)c4ccccc4N[C@@]3(C)N2C(=O)[C@H](CC(C)C)NC(=O)[C@H](CO)NC(=O)[C@@H]2CCCN2C1=O (cyclo(GSPLPSL[X1])) | Active | Non-Toxic | 
9 | CC(C)C[C@@H]1NC(=O)[C@H](Cc2ccc(O)cc2)NC(=O)[C@@H]2CCCN2C(=O)[C@H](Cc2ccccc2)NC(=O)CNC(=O)[C@@H]2CCCN2C1=O (cyclo(FPYLPG)) | Active | Non-Toxic | 1170
10 | CC(C)C[C@@H]1NC(=O)[C@H](CO)NC(=O)[C@@H]2CCCN2C(=O)[C@H](CC(C)C)NC(=O)[C@@H]2CCCN2C(=O)[C@H](CO)NC(=O)CNC(=O)[C@H](Cc2c[nH]c3ccccc23)NC1=O (cyclo(GSPLPSLW)) | Active | Non-Toxic | 
